From patent US8450479B2, “3-substituted-4-oxo-3,4-dihydro-imidazo[5,1-d][1,2,3,5-tetrazine-8-carboxylic acid amides and their use” (Pharminox Limited, priority 2007, dated 2013)
Several values for one entry are separate records, joined by “and”; a condition that tells them apart may be missing. Equal entries are not always repeated. Where two headings read alike, the source gives them in different places.

Tests used:
Type in all cases: cell-based
[1] = test system: Colon HCT116 (MMR mutated); experiment: MTT assay for 7-day toxicity assay; settings: Colon HCT116 (MMR mutated), 7-day MTT, single determinations, read-out: GI50
Experimental: (§1) The cell culture techniques were carried out in a Class II microbiological safety cabinet which was swabbed with 70% IMS in distilled water before each use. Glioma cells were routinely cultured in Costar tissue culture flasks in RPMI 1640 liquid medium (containing 0.3 g/L L-glutamine and 2 g/L sodium bicarbonate) supplemented with 10% heat inactivated FBS (55-59° C.) for 1 hour to denature complement proteins which would otherwise evoke a cellular immune response resulting in cell lysis, 1% non-essential amino acids, 50 μg/mL gentamicin and 400 μg/mL G418 (vector selected reagent). Colorectal and melanoma cells were maintained in RPMI 1640 supplemented with 10% FBS. MRC-5 cells were cultured in EMEM. Cells were grown in a humidified incubator containing 5% CO2 at 37° C. Cells were sub-cultured when growth exceeded approximately 80% confluence, normally twice weekly. The medium was aspirated from the flask and approximately 0.8 mL trypsin-EDTA 1× solution added. The cells were re-incubated at 37° C. until they visibly detached from the flask. The cell suspension was then re-suspended in 5 mL medium and 0.5-1 mL of the cell suspension was transferred to a new flask (25 cm^2) with 7 mL culture medium. The cells were further incubated at 37° C. incubator. Cells were disposed after passage nearly 30 times in order to minimize phenotypic drift. New batches of cells were taken from liquid nitrogen storage by thawing rapidly (37° C. water bath) and re-suspension in a 25 cm^2 flask with 10 mL of culture medium. Two passages were allowed to resume normal growth. For long-term maintenance, viable cells at 60-80% confluence were detached by minimum amount of trypsin/EDTA and re-suspended in sterile filtered freezing medium (95% FBS, 5% DMSO), transferred to sterile cryogenic vials, and frozen overnight at −20° C. followed by −80° C. for 1-2 days and stored in liquid nitrogen for long term storage.
(§2) Most test compounds, including temozolomide, were prepared as stock solution (100 mM) in DMSO and stored at −20° C. for not more than 6 months.
(§3) This assay was first described in Mosmann, T., 1983, “Rapid colorimetric assay for cellular growth and survival: Application to proliferation and cytotoxicity assays”, Journal of Immunological Methods, Vol. 65, Nos. 1-2, pp. 55-63.
(§4) Glioma cell lines, SNB19 and U373, both MGMT transfected (i.e., SNB19M and U373M) and vector controls (i.e., SNB19V and U373V); colorectal carcinoma cell lines, HCT116, HT29, and DLD1; melanoma cell line, SKMEL-28; breast cell line, MCF-7; and normal human fetal lung fibroblast cell line, MRC-5; were harvested at 60-80% confluence—during the logarithmic phase of growth.
(§5) Following harvesting, cells in suspension were gently syringed through a 23 gauge needle to obtain a near-single cell suspension. The desired cell seeding densities were used and added into 96-well plates in 180 μL culture medium if only one test compound was to be added, or 160 μL if two test compounds were to be added in combination, which were allowed to attach at 37° C. (5% CO2) overnight. For the 7 day assay, the cell seeding density for different cell lines was as follows: SNB19V, SNB19M: 650 cells/well; U373V, U373M: 650 cells/well; SNB19VR, U373VR: 650 cells/well; HCT116, DLD-1, SKMEL-28, MRC-5, MCF-7: 400 cells/well.
(§6) The two peripheral lanes were used as blank wells (cell free) and filled with 200 μL of medium in order to minimise medium evaporation from the plate. A separate time zero (T0) plate was set up alongside other plates. Serial dilutions in tissue culture medium of a 100 mM stock of test compound in DMSO were prepared immediately before each assay to ten times the final concentrations required, and then 20 μL was added to each well (200 μL total media per well) to achieve final concentrations of 0.5 μM, 1 μM, 5 μM, 10 μM, 50 μM, 100 μM, 500 μM, and 1000 μM. A minimum of four wells received the same test compound concentration. […]

[2] = test system: Melanoma SKMEL-28 (MMR proficient); experiment: MTT assay for 7-day toxicity assay; settings: Homo sapiens, SK-MEL-28, 168 h, Melanoma SKMEL-28 (MMR proficient); 7-day MTT; single determinations; read-out: GI50
Experimental: as §1, §2, §3, §4, §5, §6

[3] = test system: Colon HT29 (MMR proficient); experiment: MTT assay for 7-day toxicity assay; settings: Homo sapiens, HT-29, 168 h, Colon HT29 (MMR proficient); 7-day MTT; single determinations; read-out: GI50
Experimental: as §1, §2, §3, §4, §5, §6

Glioma U373V (MGMT low) = experiment: MTT assay for 7-day toxicity assay; settings: Glioma U373V (MGMT low), 7-day MTT, single determinations
Experimental: as §1, with “Glioma cells were routinely cultured in Costar tissue culture flasks in RPMI 1640 liquid medium (containing 0.3 g/L L-glutamine and 2 g/L sodium bicarbonate) supplemented with 10% heat inactivated FBS (55-59° C.) for 1 hour to denature complement proteins which would otherwise evoke a cellular immune response resulting in cell lysis, 1% non-essential amino acids, 50 μg/mL gentamicin and 400 μg/mL G418 (vector selected reagent). Colorectal and melanoma cells were maintained in RPMI 1640 supplemented with 10% FBS.” left out
as §2, §4, §5
(§7) The two peripheral lanes were used as blank wells (cell free) and filled with 200 μL of medium in order to minimise medium evaporation from the plate. A separate time zero (T0) plate was set up alongside other plates. Serial dilutions in tissue culture medium of a 100 mM stock of test compound in DMSO were prepared immediately before each assay to ten times the final concentrations required, and then 20 μL was added to each well (200 μL total media per well) to achieve final concentrations of 0.5 μM, 1 μM, 5 μM, 10 μM, 50 μM, 100 μM, 500 μM, and 1000 μM. A minimum of four wells received the same test compound concentration. To control wells, including those in the T0 plate, 20 μL of medium was added. […] A separate plate treated in the same way, but free of test compound, was used as a measure of cell viability at the time of drug addition (day 0).
(§8) After incubation at 37° C., 5% CO2 for 7 days (or immediately for the day 0 plate), cell viability was quantified using the MTT assay. 50 μL of sterile filtered MIT (3-(4,5-dimethylthiazol-2-yl)-2,5-diphenyltetrazolium bromide) (2 mg/mL in phosphate buffered saline) were added to each well (final concentration 0.4 mg/mL) and the plates were re-incubated for 4 hours to allow metabolic conversion of MTT by dehydrogenases in viable cells to insoluble formazan crystals.
(§9) The intensity of absorbance is directly proportional to cell viability.

Glioma U373M (MGMT+) = experiment: MTT assay for 7-day toxicity assay; settings: Glioma U373M (MGMT+), 7-day MTT, single determinations
Experimental: as §1, with “Glioma cells were routinely cultured in Costar tissue culture flasks in RPMI 1640 liquid medium (containing 0.3 g/L L-glutamine and 2 g/L sodium bicarbonate) supplemented with 10% heat inactivated FBS (55-59° C.) for 1 hour to denature complement proteins which would otherwise evoke a cellular immune response resulting in cell lysis, 1% non-essential amino acids, 50 μg/mL gentamicin and 400 μg/mL G418 (vector selected reagent). Colorectal and melanoma cells were maintained in RPMI 1640 supplemented with 10% FBS.” left out
as §2, §4, §5, §7, §8, §9

Glioma SNB19V (MGMT−) = experiment: MTT assay for 7-day toxicity assay; settings: Glioma SNB19V (MGMT−), 7-day MTT, single determinations
Experimental: as §1, with “Glioma cells were routinely cultured in Costar tissue culture flasks in RPMI 1640 liquid medium (containing 0.3 g/L L-glutamine and 2 g/L sodium bicarbonate) supplemented with 10% heat inactivated FBS (55-59° C.) for 1 hour to denature complement proteins which would otherwise evoke a cellular immune response resulting in cell lysis, 1% non-essential amino acids, 50 μg/mL gentamicin and 400 μg/mL G418 (vector selected reagent). Colorectal and melanoma cells were maintained in RPMI 1640 supplemented with 10% FBS.” left out
as §2, §4, §5, §7, §8, §9

Glioma SNB19M (MGMT+) = experiment: MTT assay for 7-day toxicity assay; settings: Glioma SNB19M (MGMT+), 7-day MTT, single determinations
Experimental: as §1, with “Glioma cells were routinely cultured in Costar tissue culture flasks in RPMI 1640 liquid medium (containing 0.3 g/L L-glutamine and 2 g/L sodium bicarbonate) supplemented with 10% heat inactivated FBS (55-59° C.) for 1 hour to denature complement proteins which would otherwise evoke a cellular immune response resulting in cell lysis, 1% non-essential amino acids, 50 μg/mL gentamicin and 400 μg/mL G418 (vector selected reagent). Colorectal and melanoma cells were maintained in RPMI 1640 supplemented with 10% FBS.” left out
as §2, §4, §5, §7, §8, §9

Colon DLD1 = experiment: MTT assay for 7-day toxicity assay; settings: Homo sapiens, DLD-1, 168 h; Colon DLD1; 7-day MTT; single determinations; read-out: GI50
Experimental: as §1, §2, §3, §4, §5, §6

[4] = test system: glioma MGMT− and MGMT+ cell lines; experiment: MTT assay, glioma lines as a whole
Description: as §3, §4, §5
The two peripheral lanes were used as blank wells (cell free) and filled with 200 μL of medium in order to minimise medium evaporation from the plate. A separate time zero (T0) plate was set up alongside other plates. Serial dilutions in tissue culture medium of a 100 mM stock of test compound in DMSO were prepared immediately before each assay to ten times the final concentrations required, and then 20 μL was added to each well (200 μL total media per well) to achieve final concentrations of 0.5 μM, 1 μM, 5 μM, 10 μM, 50 μM, 100 μM, 500 μM, and 1000 μM. A minimum of four wells received the same test compound concentration. To control wells, including those in the T0 plate, 20 μL of medium was added. Previous assays had been carried out to verify that cell viability was not affected by the amount of DMSO added into the test compound-treated wells. A separate plate treated in the same way, but free of test compound, was used as a measure of cell viability at the time of drug addition (day 0).
as §8, with “crystals. The medium and any unconverted MTT was aspirated, 150 μL of DMSO was added to each well, and the plates were shaken on a plate shaker (Stuart Scientific 503) to ensure complete formazan solubilisation.” for “crystals.”
The intensity of absorbance is directly proportional to cell viability. A linear relationship exists between cell number and the amount of formazan and so the mean absorbance determined for each well of the same concentration can be used as a quantitative measure of viable cells compared to the controls. A graph of absorbance against drug concentration was plotted and the test compound concentration (GI50) causing 50% inhibition of control cell growth (absorbance increase from day 0) was calculated by interpolation.

[5] = test system: Glioma SNB19VR (MGMT−) (TMZ resistant); experiment: MTT assay for 7-day toxicity assay; settings: Glioma SNB19VR (MGMT−, TMZ resistant), 7-day MTT, single determinations, read-out: GI50
Experimental: as §1, §2, §3, §4, §5, §6

[6] = test system: Normal Human Fetal Lung Fibroblast MRC-5; experiment: MTT assay for 7-day toxicity assay; settings: Normal Human Fetal Lung Fibroblast MRC-5, 7-day MTT, single determinations, read-out: GI50
Experimental: as §1, §2, §3, §4, §5, §6

| Compound | GI50 ([1]; Homo sapiens, HCT-116, 168 h) [µM] | GI50 [2] [µM] | GI50 [3] [µM] | GI50 (Glioma SNB19V (MGMT−); 168 h) [µM] | GI50 (Glioma SNB19V (MGMT−)) | GI50 (Glioma SNB19M (MGMT+); 168 h) [µM] | GI50 (Glioma SNB19M (MGMT+)) | GI50 (Colon DLD1) [µM] | GI50 (Glioma U373M (MGMT+); 168 h, read-out: GI50) [µM] | GI50 (Glioma U373M (MGMT+); read-out: GI50) [µM] | GI50 (Glioma SNB19V (MGMT−); 168 h, read-out: GI50) [µM] | GI50 (Glioma SNB19V (MGMT−); read-out: GI50) [µM] | GI50 (Glioma SNB19M (MGMT+); 168 h, read-out: GI50) [µM] | GI50 (Glioma SNB19M (MGMT+); read-out: GI50) [µM] | also measured |
| --- | --- | --- | --- | --- | --- | --- | --- | --- | --- | --- | --- | --- | --- | --- | --- |
| C[C@@H](c1ccccc1)n1nnc2c(C(N)=O)ncn2c1=O [BB-002, (S)-3-(−1-Phenylethyl)-8-carbamoylimidazotetrazin-4-one] | 206 | 222 | 243 | 35.3 | 34.1 µM | 41.2 | 49.7 µM |  |  |  |  |  |  |  | GI50 (Glioma U373V (MGMT low); 168 h): 61.6 µM; GI50 (Glioma U373V (MGMT low)): 70.7 µM; GI50 (Glioma U373M (MGMT+); 168 h): 69.6 µM; GI50 (Glioma U373M (MGMT+)): 95 µM |
| NC(=O)c1ncn2c(=O)n(CCc3ccccc3)nnc12 [DD-001, 4-oxo-3-phenethyl-3,4-dihydroimidazo[5,1-d][1,2,3,5]tetrazine-8-carboxamide] | 302 | 424 | 498 | 77 | 128 µM and 91.1 µM | 95 | 70.2 µM and 92.6 µM | 385 |  |  |  |  |  |  |  |
| NC(=O)Cn1nnc2c(C(N)=O)ncn2c1=O [JJ-001, 2-(8-Carbamoyl-oxoimidazo[5,1-d][1,2,3,5]tetrazin-3(4H)-yl)ethanamide] |  |  |  |  |  |  |  |  | 86.7 | 58 | 37.5 | 38.5 | 107 | 83.2 | activity in words ([4]; glioma MGMT− and MGMT+ cell lines): good activity; GI50 (Glioma U373V (MGMT low); 168 h, read-out: GI50): 56.2 µM; GI50 (Glioma U373V (MGMT low); read-out: GI50): 74.6 µM |
| CCOC(=O)CCn1nnc2c(C(N)=O)ncn2c1=O [LL-002, Ethyl 3-(8-carbamoyl-oxoimidazo[5,1-d][1,2,3,5]tetrazin-3(4H)-yl)propanoate] |  |  |  |  |  |  |  |  | 156 | 131 | 447 | 288 | 248 | 261 | fold less active than the acetic acid ester derivatives LL-003 and PX-016 ([4]; Table 10, glioma cell lines): > 10 fold |
| NC(=O)c1ncn2c(=O)n(Cc3ccco3)nnc12 [PX-004] | 70.9 | 53.4 | 27.2 |  |  |  |  | 45.4 |  |  |  |  |  |  | GI50 ([5]; 168 h): 50.1 µM; GI50 [5]: 52.5 µM; GI50 [1]: 55.6 µM; GI50 ([6]; Homo sapiens, MRC5, 168 h): 60.3 µM; GI50 [6]: 55.5 µM |
